Data reported in patent US5589373A, “Thermostable alkaline metalloprotease produced by a hyphomonas and preparation thereof” (priority 1995, dated 1996).
“Also recorded” adds a separate entry of the source. Read-outs that look alike come from different tables or passages of the source.

Experiments:
[1] = test system: H. jannaschiana stationary phase cells; assay: Repression of exoprotease synthesis in stationary phase cells in growth media (azocasein assay); assay type: cell-based, Hyphomonas jannaschiana VP3; conditions: for activity / activity at 100000 µM: Hyphomonas jannaschiana, read-out: Enzyme activity (%) in growth media
Experimental: (§1) Samples of the cell culture supernatants, the toluenized cells, and the cell lysates were each tested for protease activity using an azocasein assay, such as described by Long et al., J. Gen. Microbiol. 127:193-199 (1981). One unit of enzyme activity was considered equivalent to an increased absorbance of 0.1 units at a wavelength of 440 nm after a 30 minute incubation at 42° C.
The stationary phase cells were resuspended in a one-tenth volume of MB, then incubated for 30 minutes at 37° C. Exoprotease activity was determined at hourly intervals following introduction of single amino acids at a final concentrations of 0.1% (v/v) o The assay was conducted over a period of 3 hours.
In a similar manner, protease activity was determined following the introduction of 100 mM (NH4)2 SO4 (ammonium sulfate) or 1% casamino acids to the growth medium.

[2] = test system: H. jannaschiana extracellular protease; assay: Effect of amino acids, casamino acids or (NH4)2SO4 on cell-free protease suspension (azocasein assay); assay type: biochemical, Hyphomonas jannaschiana VP3; design: Enzyme activity (%) in cell free supernatant: concentration or dose not given beside the values; conditions: for Enzyme activity (%) in cell free supernatant: cell-free protease suspension, 10 minute incubation, same additions, control = 100
Experimental: as §1
In the alternative, after allowing protease synthesis and export to proceed for 2.5 hours, the cells were removed by centrifugation, and the supernatant was passed through a 0.22 μm filter. The cell-free protease suspension was then treated, as described above, with single amino acids, casamino acids, or (NH4)2 SO4. Then, enzyme activity was determined following a 10 minute incubation period.

[3] = test system: H. jannaschiana exoprotease; assay: Chemical inhibition of protease activity in filtered culture supernatant; assay type: biochemical, Hyphomonas jannaschiana VP3; conditions: for protease activity after exposure to inhibitor (in words): 5 mM o-phenanthroline, 60 mM PMSF, 100 mM EDTA, 80 mM EGTA; for exoprotease activity in additional assays, data not shown (in words): concentration not given
Experimental: as §1
The effect of various protease inhibitors on the production of H. jannaschiana exoprotease was tested by measuring protease activity following the incubation of the cells with each inhibitor. Stationary phase cells, grown in MB, were pelleted and resuspended in fresh media at one-tenth of the original culture volume. The cell suspension was incubated at 37° C. for 2.5 hours to permit synthesis and export of exoprotease into the culture supernatant. Then the cells were removed by centrifugation and the supernatant was sterilized by filtration through a 0.22 μm filter.
Protease activity was measured after exposure to each inhibitor at 25° C. for 15 minutes. The inhibitors were added at the following final concentrations: 5 mM o-phenanthroline, 60 mM […] (PMSF), 10 mM and 25 mM p-chloromercuribenzoic acid (pCMB), 100 mM EDTA, 80 mM ethylene glycol bis(beta-amino-ethylether)N,N,N',N'-tetraacetic acid (EGTA).
Each bar represents treatment of the exoprotease with the following: 1=untreated exoprotease; 2=o-phenan-throline; 3=o-phenanthroline and ZnCl; 4=ZnCl; 5=EGTA; 6=EGTA and CaCl; 7=CaCl; 8=EDTA; 9=EDTA and ZnCl; 10=EDTA and CaCl; 11=pCMB (10 mM, final conc.); 12=pCMB (25 mM, final conc.); and 13=PMSF. The enzyme activity was expressed as a percentage of the activity measured in the untreated control.

[4] = test system: functional extracellular protease; assay: Quinacrine on functional extracellular protease activity; assay type: biochemical, Hyphomonas jannaschiana
[5] = test system: H. jannaschiana stationary phase cells; assay: Inhibition of protease export by quinacrine in non-proliferating stationary phase cells; assay type: cell-based; conditions: Hyphomonas jannaschiana; for activity at 25 µM: 0.025 mM quinacrine, read-out: Enzyme activity relative to untreated control
Experimental: (§2) Thus, protease export was examined in the presence of quinacrine, a signal peptidase inhibitor. Protease export in the presence of quinacrine was examined using two approaches. An actively growing culture of H. jannaschiana was monitored with respect to both optical density at 550 nm and extracellular enzyme activity in the presence of 0.025 mM quinacrine. In order to eliminate the effect of quinacrine on H. jannaschiana growth, cells were initially propagated to stationary phase, and subsequently maintained in the non-proliferating state by 10-fold concentration in fresh media which was supplemented with 0.025 mM quinacrine.

[6] = test system: actively growing culture of H. jannaschiana; assay: Quinacrine on an actively growing culture (optical density and extracellular enzyme activity); assay type: cell-based, Hyphomonas jannaschiana; conditions: 0.025 mM quinacrine
Experimental: as §2

[7] = test system: H. jannaschiana exoprotease; assay: Recovery of chemically inhibited protease activity by Zn2+ and Ca2+; assay type: biochemical, Hyphomonas jannaschiana VP3; conditions: for restoration of activity to EDTA-inactivated enzyme: 100 mM EDTA, ZnCl2 or CaCl2, 25° C.; for effect of additional ions on activity of the native protease: no inhibitor
Experimental: The ability of the divalent cations Zn^2+ and Ca^2+ to restore enzyme activity to inactivated exoprotease was examined by introducing either 5 mM ZnCl2 or 100 mM CaCl2 at a 1:1 molar ratio of ion to inhibitor to the preparations described in Example 4. Following incubation at 25° C. for 15 minutes, protease activity was assayed.

[8] = Thermal stability of H. jannaschiana exoprotease (azocasein assay); assay type: physicochemical, Hyphomonas jannaschiana; conditions: for enzyme activity remaining after incubation at 75° C. for 30 minutes: filtered stationary phase culture supernatant, pH 9
Experimental: Filtered supernatant containing Hyphomonas jannaschiana exoprotease was maintained at 75° C. and 100° C. for various periods of time. Then, the enzyme was allowed to recalibrate to 25° C., and subsequently assayed for protease activity using the azocasein assay.

[9] = Properties of the purified thermostable alkaline metalloprotease (pH and temperature optimum, pH stability, pI); design: species or system Hyphomonas jannaschiana
[10] = stationary phase cells in one-tenth volume MB, 37° C., single amino acids 0.1% (v/v), control = 100
[11] = stationary phase cells in one-tenth volume MB, 37° C., single amino acids 0.1% (v/v), 100 mM (NH4)2SO4 or 1% casamino acids, control = 100
[12] = listed as alkaline exoprotease produced by H. jannaschiana

N[C@@H](CC(=O)O)C(=O)O [aspartic acid]
activity [1, 10]: 79%
Enzyme activity (%) in cell free supernatant [2]: 60%

O=C(O)CN(CCOCCOCCN(CC(=O)O)CC(=O)O)CC(=O)O [EGTA, ethylene glycol bis(beta-amino-ethylether)N,N,N',N'-tetraacetic acid]
protease activity after exposure to inhibitor (in words) ([3]; 25° C., 15 minutes): totally inhibited

NCC(=O)O [glycine]
activity at 100000 µM [1, 11]: 69%
Enzyme activity (%) in cell free supernatant [2]: 82%

O=C(O)CN(CCN(CC(=O)O)CC(=O)O)CC(=O)O [EDTA, ethylenediaminetetra-acetic acid]
EDTA concentration necessary to inhibit enzyme activity [3]: greater than 10^-2 M
protease activity after exposure to inhibitor (in words) ([3]; 25° C., 15 minutes): inhibited

CCN(CC)CCCC(C)Nc1c2ccc(Cl)cc2nc2ccc(OC)cc12 (centres unmarked) [quinacrine]
effect on functional extracellular protease activity (in words) [4]: no affect
activity at 25 µM ([5]; 0.5 h, time 30 min): 100%
activity at 25 µM ([5]; 40 min, time 40 min): 33%
inhibition at 25 µM ([5]; 40 min, 40 minutes after the addition of quinacrine, read-out: reduction in exported enzyme): 67%
activity at 25 µM ([5]; 1 h, time 60 min): 50%
activity at 25 µM ([5]; 1.5 h, time 90 min): 78%
activity at 25 µM ([5]; 2 h, time 120 min): 82%
activity at 25 µM ([5]; 3 h, time 180 min): 90%
cell density and exoprotease activity after an additional 6 hour growth period (in words) [6]: returned to normal levels
inhibition of growth at 25 µM ([6]; Hyphomonas jannaschiana, 7 h, seven hours after treatment, OD 550 nm, read-out: reduction of optical density of the culture vs untreated cells): 48%
inhibition at 25 µM ([6]; Hyphomonas jannaschiana, 7 h, seven hours after treatment, read-out: exoprotease activity diminished vs untreated cells): 73%

CC(C)C[C@H](N)C(=O)O [leucine]
Enzyme activity (%) in cell free supernatant [2]: 69%

N.N.O=S(=O)(O)O [(NH4)2 SO4, ammonium sulfate]
reduction in the synthesis of the exoprotease ([1]; 100 mM (NH4)2SO4): approximately 50%
Enzyme activity (%) in growth media [1, 11]: 56%
Enzyme activity (%) in cell free supernatant [2]: 100%
extracellular enzyme activity in cell-free growth media (in words) ([2]; exposed to the added substance): no affect

[Ca+2].[Cl-].[Cl-] [Ca^2+, CaCl2]
restoration of activity to EGTA-inhibited exoprotease ([7]; 80 mM EGTA, CaCl2 at 1:1 ion to inhibitor, 25° C., 15 minutes): reversible; also recorded: restored
restoration of activity to EDTA-inactivated enzyme ([7]; 15 minutes): partially restored
effect of additional ions on activity of the native protease [7]: no detectable effect

N[C@@H](Cc1c[nH]cn1)C(=O)O [histidine]
activity [1, 10]: 87%
Enzyme activity (%) in cell free supernatant [2]: 83%

N[C@@H](CO)C(=O)O [serine]
activity [1, 10]: 79%
Enzyme activity (%) in cell free supernatant [2]: 64%

O=C(O)c1cc[c]([Hg][Cl])cc1 [pCMB, p-chloromercuribenzoic acid]
protease activity after exposure to low concentration of pCMB (in words) ([3]; 10 mM pCMB, 25° C., 15 minutes): unaffected; also recorded: not affected
protease activity after exposure to high concentration of pCMB (in words) ([3]; 25 mM pCMB, 25° C., 15 minutes): reduced

N[C@@H](Cc1c[nH]c2ccccc12)C(=O)O [tryptophan]
Enzyme activity (%) in cell free supernatant [2]: 56%

O=C(O)[C@@H]1CCCN1 [proline]
activity at 100000 µM [1, 11]: 108%
Enzyme activity (%) in cell free supernatant [2]: 93%

C[C@H](N)C(=O)O [alanine]
Enzyme activity (%) in cell free supernatant [2]: 56%

OCCS [mercaptoethanol]
exoprotease activity in additional assays, data not shown (in words) [3]: abolished

N[C@@H](CCC(=O)O)C(=O)O [glutamic acid]
activity at 100000 µM [1]: 86%
Enzyme activity (%) in cell free supernatant [2]: 52%

[Cl-].[Cl-].[Zn+2] [Zn^2+, ZnCl2]
restoration of activity to o-phenanthroline-inhibited exoprotease ([7]; 5 mM o-phenanthroline, 5 mM ZnCl2, 1:1 ion to inhibitor, 25° C., 15 minutes): reactivated; also recorded: restored
restoration of activity to EDTA-inactivated enzyme ([7]; 15 minutes): partially restored
effect of additional ions on activity of the native protease [7]: significantly increased

CC(C)CC(NC(=O)C1OC1C(=O)O)C(=O)NCCCCNC(=N)N (centres unmarked) [E64]
exoprotease activity in additional assays, data not shown (in words) [3]: not affected

c1cnc2c(c1)ccc1cccnc12 [o-phenanthroline]
protease activity after exposure to inhibitor (in words) ([3]; 25° C., 15 minutes): totally inhibited

NC(=O)CC[C@H](N)C(=O)O [glutamine]
Enzyme activity (%) in cell free supernatant [2]: 52%

O=S(=O)(F)Cc1ccccc1 [PMSF, phenylmethyl sulfonamide fluoride]
protease activity after exposure to inhibitor (in words) ([3]; 25° C., 15 minutes): unaffected; also recorded: not affected

B1: H. jannaschiana exoprotease: extracellular thermostable alkaline metalloprotease, approximately 80,000 daltons, produced by Hyphomonas jannaschiana VP3 (protein)
chain: EICRIVMDGHCEKQGDAECHDDQQSARPADQRINQDVEQVDDQFEEQGPGRNVCGINVFGS
activity remaining after boiling at 100° C. for 5 minutes [8]: at least 41%
decrease of exoprotease activity after incubation at 75° C. for 30 minutes ([8]; azocasein assay): about 40%
reduction of extracellular protease activity after 100° C. (boiling) for 5 minutes ([8]; filtered culture supernatant): 41%
enzyme activity remaining after incubation at 75° C. for 30 minutes [8]: at least 60%
enzyme activity remaining after incubation at 75° C. for 30 minutes [8, 12]: Over 60%
proteolytic activity after boiling for 5 minutes (in words) [8, 12]: failed to destroy
proteolytic activity after boiling for 5 minutes (in words) ([8]; listed as thermostable alkaline exoprotease): did not destroy
isoelectric point pI [9]: 4.8
optimal temperature ([9]; reacted at pH 9): 45 °C
optimal pH ([9]; reaction temperature of about 60° to 65° C.): approximately 9.5
